Activity calls are given as the source filed them.
Tests used:
[1] = biological target: T1, Alkaline phosphatase, tissue-nonspecific isozyme (Homo sapiens, UniProt P05186)
T1 sequence (P05186 whole entry): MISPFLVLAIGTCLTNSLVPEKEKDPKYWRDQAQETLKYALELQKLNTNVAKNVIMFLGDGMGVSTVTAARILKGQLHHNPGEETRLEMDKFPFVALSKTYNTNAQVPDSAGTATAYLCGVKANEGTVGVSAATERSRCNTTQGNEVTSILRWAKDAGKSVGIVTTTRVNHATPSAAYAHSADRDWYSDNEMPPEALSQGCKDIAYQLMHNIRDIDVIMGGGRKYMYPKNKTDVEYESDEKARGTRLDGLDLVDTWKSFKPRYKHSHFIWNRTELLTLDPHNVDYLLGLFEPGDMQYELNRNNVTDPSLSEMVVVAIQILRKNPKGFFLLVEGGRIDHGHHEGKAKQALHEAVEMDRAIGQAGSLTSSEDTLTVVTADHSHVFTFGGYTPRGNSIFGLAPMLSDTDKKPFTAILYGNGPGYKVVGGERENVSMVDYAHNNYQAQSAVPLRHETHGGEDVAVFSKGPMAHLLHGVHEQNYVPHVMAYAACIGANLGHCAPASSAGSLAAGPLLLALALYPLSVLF

[2] = biological target: T2, Probable nicotinate-nucleotide adenylyltransferase (Staphylococcus aureus (strain N315), UniProt P65502); type: functional, Staphylococcus aureus subsp. aureus N315;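 on IC50 Mean: confirmatory dose-response retesting of NadD inhibitor hits first found in an ultra-high-throughput screen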
[3] = biological target: T2, Probable nicotinate-nucleotide adenylyltransferase; type: functional, Staphylococcus aureus subsp. aureus N315; details: read-out: IC50_Mean
[4] = biological target: Eukaryotic translation initiation factor 4H (Homo sapiens, UniProt Q15056); test: human eIF4H binding inhibitors, primary screen, translation initiation inhibitor project, biochemical, uHTS, fluorescence polarization (AID 2012)
[5] = biological target: Polyadenylate-binding protein 1 (Homo sapiens, UniProt P11940); test: PABP poly(A) RNA binding inhibitors, primary screen, biochemical, fluorescence polarization, uHTS (AID 2014)
Wee1-like protein kinase = Wee1-like protein kinase (Homo sapiens, UniProt P30291); test: G2/M cell cycle arrest in HeLa, late-stage follow-up, mechanism study for Wee1 degradation inhibitor project, FACS, panel member Wee1 Degradation (AID 2088)
[6] = biological target: G2/mitotic-specific cyclin-B1 (Homo sapiens, UniProt P14635); test: G2/M cell cycle arrest in HeLa, late-stage follow-up, mechanism study for Wee1 degradation inhibitor project, FACS, panel member Cyclin B Degradation (AID 2088)
[7] = biological target: Serine/threonine-protein phosphatase PP1-alpha catalytic subunit (Homo sapiens, UniProt P62136); test: PP1 phosphatase inhibitors, dose response, biochemical, fluorescence (AID 2403);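 further: phosphatase turnover of OMFP into fluorescent 3-O-methylfluorescein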
[8] = biological target: Serine/threonine-protein phosphatase (Homo sapiens, UniProt Q9BPW0); test: Counterscreen for inhibitors of PP1: fluorescence-based biochemical high throughput dose response assay to identify inhibitors of Protein Phosphatase 5 (PP5). [Related pubchem assays: 2034 (Summary (PP5 inhibitors)), 1987 (PP5 inhibitors in singlate), 2235 (PP1 inhibitors in singlate)]
[9] = growth suppression of PTEN-null colon cells, dose response, cell-based, HCT116 PTEN knockout (AID 1047); type: functional;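 further: HCT116 colon tumor cells with PTEN knocked out; cells exposed to compound for 60 hours before readout; potency for loss of cell viability measured by luminescence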
[10] = growth suppression of beta-catenin-knockout colon cells, dose response, cell-based, HCT116, human colon tumor (AID 1045); type: functional;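 further: HCT116 colon tumor cells with beta catenin knocked out; cells exposed to compound for 60 hours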
[11] = biological target: Neurotensin receptor type 1 (Homo sapiens, UniProt P30989); type: functional;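 further: Image-based confirmatory dose-response assay measuring agonist activity at NTR1; NTR1-expressing U2OS osteosarcoma cells imaged for beta-arrestin GFP spot formation; agonist potency where compounds increase beta-arrestin recruitment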
X-box-binding protein 1 = X-box-binding protein 1 (Homo sapiens, UniProt P17861); type: functional, Cricetulus griseus;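 further: confirmatory dose-response counter-screen serving a CHOP assay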
NS3 = NS3 (Hepatitis C virus, UniProt A3EZJ3); test: PubChem AID 2173; set-up: species or system Hepacivirus hominis
Cytochrome P450 1A2 = biological target: T3, Cytochrome P450 1A2 (Homo sapiens, UniProt P05177);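 further: PubChem cytochrome P450 panel assay, CYP1A2 panel member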
T3 sequence (P05177 whole entry): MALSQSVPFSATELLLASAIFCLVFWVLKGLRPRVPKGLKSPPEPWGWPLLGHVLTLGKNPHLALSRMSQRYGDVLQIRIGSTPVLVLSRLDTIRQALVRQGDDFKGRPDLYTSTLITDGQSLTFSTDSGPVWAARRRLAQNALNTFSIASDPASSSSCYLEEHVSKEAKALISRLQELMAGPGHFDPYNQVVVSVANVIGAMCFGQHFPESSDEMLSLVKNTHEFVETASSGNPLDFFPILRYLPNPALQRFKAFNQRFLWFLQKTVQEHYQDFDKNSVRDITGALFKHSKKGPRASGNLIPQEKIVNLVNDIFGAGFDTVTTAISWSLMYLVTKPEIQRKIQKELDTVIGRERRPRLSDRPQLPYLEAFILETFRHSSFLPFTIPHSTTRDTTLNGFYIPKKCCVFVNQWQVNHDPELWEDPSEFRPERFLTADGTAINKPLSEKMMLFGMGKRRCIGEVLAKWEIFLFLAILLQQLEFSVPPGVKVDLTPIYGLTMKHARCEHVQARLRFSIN

Cytochrome P450 3A4 = Cytochrome P450 3A4 (Homo sapiens, UniProt P08684);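 further: CYP3A4 tested as one member of a cytochrome P450 panel screen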
[12] = cytotoxicity in HEK-293T cells, dose response, cytotoxicity control for BCR NF-kB inhibitor project, luminescence, B-cell screen hits (AID 489021); type: functional, cell-based;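 further: HEK-293T cells carrying an NF-kB luciferase reporter; cells exposed to compound for about 14 hours before viability readout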
[13] = biological target: Luciferin 4-monooxygenase (Photinus pyralis, UniProt P08659); test: Counter Screen for Luciferase-based Assay Positives. [Related pubchem assays: 620, 618, 411 ]
HT-1080 = test: cytotoxicity in HT1080 fibrosarcoma cells, cell-based, fluorescence readout (AID 620); type: functional; details: Homo sapiens
[14] = biological target: T4, Neuropeptides B/W receptor type 1 (Homo sapiens, UniProt P48145); test: Fluorescence-based dose response cell-based high throughput screening assay to identify antagonists of the G-protein coupled receptor 7 (GPR7). [Related pubchem assays: 1952 (Screening assay (GPR7 antagonists).), 1880 (Summary AID.)]; type: functional
T4 sequence (P48145 whole entry): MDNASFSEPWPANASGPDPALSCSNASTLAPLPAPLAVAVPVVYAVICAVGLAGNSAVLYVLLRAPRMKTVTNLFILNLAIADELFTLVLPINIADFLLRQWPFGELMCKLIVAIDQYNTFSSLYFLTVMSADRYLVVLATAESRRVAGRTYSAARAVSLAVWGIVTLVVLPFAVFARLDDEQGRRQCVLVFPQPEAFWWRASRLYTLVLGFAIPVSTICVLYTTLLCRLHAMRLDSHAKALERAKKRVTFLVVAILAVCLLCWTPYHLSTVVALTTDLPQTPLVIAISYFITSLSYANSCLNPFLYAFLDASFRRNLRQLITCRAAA

[15] = biological target: Melanin-concentrating hormone receptor 1 (Homo sapiens, UniProt Q99705); test: Fluorescence-based counterscreen for antagonists of the G-protein coupled receptor 7 (GPR7): cell-based high throughput dose response assay to identify antagonists of the melanin-concentrating hormone receptor 1 (MCHR1).; type: functional
[16] = biological target: Lysosomal acid glucosylceramidase (Homo sapiens, UniProt P04062); test: Dose response cell-based high throughput screening assay to identify enhancers of beta-glucosidase activity. [Related pubchem assays: 784 ]; type: functional
[17] = biological target: Mothers against decapentaplegic homolog 3 (Homo sapiens, UniProt P84022); test: Smad3 binding inhibitors, lysate ELISA, dose response, cell lysate, secondary confirmation, chemiluminescent ELISA, HEK293 lysate (AID 1058); type: functional
Cytochrome P450 2D6 = Cytochrome P450 2D6 (Homo sapiens, UniProt P10635); test: qHTS Assay for Inhibitors and Substrates of Cytochrome P450 2D6. [Related pubchem assays: 410 ]; type: ADME; details: read-out: Potency
[18] = biological target: T5, Eukaryotic translation initiation factor 2-alpha kinase 3 (Homo sapiens, UniProt Q9NZJ5); test: Dose response cell-based high-throughput screening assay to measure PERK inhibition. [Related pubchem assays: 1416 ]; type: functional
[19] = biological target: T5, Eukaryotic translation initiation factor 2-alpha kinase 3; test: Counterscreen assay for PERK inhibitors: Dose response cell-based high throughput screening assay to measure inhibition of PERK at 6 hours. [Related pubchem assays: 1522, 1416 ]; type: functional
[20] = biological target: Signal transducer and activator of transcription 3 (Homo sapiens, UniProt P40763); test: STAT3 activators, late-stage profile, late-stage follow-up, cell-based, STAT1 reporter, BCL3 qPCR, cytotoxicity, panel member STAT3 Activation (AID 2049)
HEK293 = test: Fluorescence-based counterscreen for potentiators or agonists of NPY-Y2: cell-based high-throughput dose response assay to identify inhibitors of cyclic nucleotide gated ion channel (CNGC) activity. In this assay, the parental HEK293 cell line transfected with a cyclic-nucleotide gated ion channel (CNGC)-based cAMP sensor is used to measure inhibition of isoproterenol-induced CNGC activity by test compound.; type: functional; details: Homo sapiens;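 further: stimulus is 1 µM isoproterenol at EC100 plus PDE inhibitor Ro 20-1724 at 25 µM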
[21] = biological target: T6, Neuropeptide Y receptor type 2 (Homo sapiens, UniProt P49146); test: Fluorescence-based cell-based high-throughput dose response assay for agonists of NPY-Y2. [Related pubchem assays: 1703 (Screening assay (CNGC inhibitors).), 1359 (Screening assay (NPY-Y2 potentiators or agonists).), 1304 (Screening assay (NPY-Y1 potentiators or agonists).), 1710 (Screening assay (NPY-Y2 agonists).), 1791 (Summary AID.)]; type: functional
T6 sequence (P49146 whole entry): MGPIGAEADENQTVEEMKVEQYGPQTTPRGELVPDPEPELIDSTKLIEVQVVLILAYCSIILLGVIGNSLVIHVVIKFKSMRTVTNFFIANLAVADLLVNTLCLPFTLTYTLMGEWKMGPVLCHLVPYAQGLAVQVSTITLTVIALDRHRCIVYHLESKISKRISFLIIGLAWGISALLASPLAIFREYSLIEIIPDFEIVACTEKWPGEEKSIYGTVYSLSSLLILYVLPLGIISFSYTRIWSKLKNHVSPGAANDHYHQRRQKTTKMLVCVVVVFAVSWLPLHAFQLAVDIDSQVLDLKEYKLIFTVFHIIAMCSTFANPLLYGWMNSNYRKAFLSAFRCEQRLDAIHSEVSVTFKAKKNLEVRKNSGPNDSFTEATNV

[22] = biological target: T7, Neuropeptide Y receptor type 1 (Homo sapiens, UniProt P25929); test: Fluorescence-based counterscreen for agonists of NPY-Y2: cell-based high-throughput dose response assay for agonists of NPY-Y1.; type: functional
T7 sequence (P25929 whole entry): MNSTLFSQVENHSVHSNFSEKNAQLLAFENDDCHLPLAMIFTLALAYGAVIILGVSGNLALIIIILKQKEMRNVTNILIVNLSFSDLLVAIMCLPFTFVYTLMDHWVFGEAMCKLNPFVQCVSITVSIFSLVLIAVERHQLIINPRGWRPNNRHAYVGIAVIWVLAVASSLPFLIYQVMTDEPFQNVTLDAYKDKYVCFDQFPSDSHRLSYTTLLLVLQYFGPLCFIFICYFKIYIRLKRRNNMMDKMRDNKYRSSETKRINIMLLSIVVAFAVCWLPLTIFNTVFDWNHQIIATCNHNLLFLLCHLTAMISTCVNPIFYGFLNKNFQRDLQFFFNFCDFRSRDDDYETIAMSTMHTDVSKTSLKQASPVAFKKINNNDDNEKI

T2 sequence (P65502 whole entry): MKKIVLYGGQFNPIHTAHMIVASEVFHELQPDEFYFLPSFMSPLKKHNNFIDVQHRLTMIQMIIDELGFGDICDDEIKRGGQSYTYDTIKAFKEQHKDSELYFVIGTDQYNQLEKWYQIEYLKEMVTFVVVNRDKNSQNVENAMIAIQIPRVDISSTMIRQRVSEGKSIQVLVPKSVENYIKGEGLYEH
T5 sequence (Q9NZJ5 whole entry): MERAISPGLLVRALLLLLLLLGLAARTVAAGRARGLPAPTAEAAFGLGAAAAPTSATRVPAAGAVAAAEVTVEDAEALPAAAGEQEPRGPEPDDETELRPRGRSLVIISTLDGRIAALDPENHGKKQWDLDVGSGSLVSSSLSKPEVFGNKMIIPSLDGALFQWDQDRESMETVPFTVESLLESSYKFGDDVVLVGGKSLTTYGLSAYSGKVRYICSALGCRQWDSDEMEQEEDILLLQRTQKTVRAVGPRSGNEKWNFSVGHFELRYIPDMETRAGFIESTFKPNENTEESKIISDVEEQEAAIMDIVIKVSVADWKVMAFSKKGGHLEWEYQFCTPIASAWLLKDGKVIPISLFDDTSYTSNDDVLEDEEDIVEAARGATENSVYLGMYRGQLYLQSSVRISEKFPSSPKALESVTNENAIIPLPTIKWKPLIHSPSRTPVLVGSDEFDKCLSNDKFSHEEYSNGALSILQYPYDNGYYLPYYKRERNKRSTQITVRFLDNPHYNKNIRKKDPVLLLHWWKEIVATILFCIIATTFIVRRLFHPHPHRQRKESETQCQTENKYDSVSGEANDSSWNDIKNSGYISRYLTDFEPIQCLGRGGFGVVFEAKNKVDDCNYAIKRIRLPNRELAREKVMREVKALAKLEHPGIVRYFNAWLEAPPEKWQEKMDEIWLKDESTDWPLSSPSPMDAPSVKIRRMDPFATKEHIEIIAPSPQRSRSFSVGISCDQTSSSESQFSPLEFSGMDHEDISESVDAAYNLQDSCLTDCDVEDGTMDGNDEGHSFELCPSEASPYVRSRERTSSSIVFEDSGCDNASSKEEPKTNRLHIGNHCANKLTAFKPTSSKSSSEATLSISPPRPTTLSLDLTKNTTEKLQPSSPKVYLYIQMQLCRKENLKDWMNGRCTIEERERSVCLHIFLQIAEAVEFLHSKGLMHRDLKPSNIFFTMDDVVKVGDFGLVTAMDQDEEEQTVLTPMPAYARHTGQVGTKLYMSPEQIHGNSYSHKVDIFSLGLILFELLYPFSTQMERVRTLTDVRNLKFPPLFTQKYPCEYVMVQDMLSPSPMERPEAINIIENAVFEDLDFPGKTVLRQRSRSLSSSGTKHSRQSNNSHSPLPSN
Chain of Cytochrome P450 2D6 (P10635 whole entry): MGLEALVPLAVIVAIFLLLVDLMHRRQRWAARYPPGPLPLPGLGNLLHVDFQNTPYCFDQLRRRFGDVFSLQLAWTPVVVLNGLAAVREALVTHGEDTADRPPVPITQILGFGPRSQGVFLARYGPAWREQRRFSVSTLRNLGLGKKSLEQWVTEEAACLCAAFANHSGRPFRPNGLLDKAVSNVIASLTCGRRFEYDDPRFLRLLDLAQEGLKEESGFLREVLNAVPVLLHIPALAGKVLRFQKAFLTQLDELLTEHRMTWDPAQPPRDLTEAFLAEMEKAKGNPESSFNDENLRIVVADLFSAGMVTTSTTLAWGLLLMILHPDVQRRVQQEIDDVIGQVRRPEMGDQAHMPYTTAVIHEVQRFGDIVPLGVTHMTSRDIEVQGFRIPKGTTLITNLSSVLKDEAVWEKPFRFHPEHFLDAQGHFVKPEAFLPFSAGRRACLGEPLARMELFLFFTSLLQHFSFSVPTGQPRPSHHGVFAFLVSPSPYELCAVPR
Chain of Mothers against decapentaplegic homolog 3 (P84022 whole entry): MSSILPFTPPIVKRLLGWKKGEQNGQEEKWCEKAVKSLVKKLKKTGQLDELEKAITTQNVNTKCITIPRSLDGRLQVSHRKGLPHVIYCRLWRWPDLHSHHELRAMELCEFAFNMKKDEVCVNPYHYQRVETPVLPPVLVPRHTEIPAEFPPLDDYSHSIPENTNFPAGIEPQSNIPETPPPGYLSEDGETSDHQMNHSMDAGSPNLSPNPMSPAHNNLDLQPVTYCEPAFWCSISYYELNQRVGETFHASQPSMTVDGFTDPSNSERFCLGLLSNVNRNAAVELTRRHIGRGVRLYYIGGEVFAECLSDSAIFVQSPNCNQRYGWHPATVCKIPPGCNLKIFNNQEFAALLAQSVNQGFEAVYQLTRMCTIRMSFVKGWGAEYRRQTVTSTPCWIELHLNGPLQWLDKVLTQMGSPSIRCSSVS
Chain of Wee1-like protein kinase (P30291 whole entry): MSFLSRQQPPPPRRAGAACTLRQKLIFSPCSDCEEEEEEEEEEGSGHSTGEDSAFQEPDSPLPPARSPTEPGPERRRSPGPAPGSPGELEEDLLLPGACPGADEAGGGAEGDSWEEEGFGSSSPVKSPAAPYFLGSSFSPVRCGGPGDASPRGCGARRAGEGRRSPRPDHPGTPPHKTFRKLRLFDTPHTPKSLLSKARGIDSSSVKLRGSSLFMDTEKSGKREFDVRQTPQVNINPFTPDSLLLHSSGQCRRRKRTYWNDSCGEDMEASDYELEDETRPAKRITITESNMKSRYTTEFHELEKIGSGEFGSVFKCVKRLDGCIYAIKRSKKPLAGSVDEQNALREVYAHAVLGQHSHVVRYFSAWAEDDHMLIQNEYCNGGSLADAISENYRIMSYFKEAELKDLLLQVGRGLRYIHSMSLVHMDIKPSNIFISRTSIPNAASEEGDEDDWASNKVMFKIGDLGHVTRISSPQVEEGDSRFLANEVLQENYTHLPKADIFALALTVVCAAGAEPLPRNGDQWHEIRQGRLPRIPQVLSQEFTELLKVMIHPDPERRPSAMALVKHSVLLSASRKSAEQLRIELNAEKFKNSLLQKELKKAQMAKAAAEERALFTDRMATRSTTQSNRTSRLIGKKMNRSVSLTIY
Chain of NS3 (A3EZJ3 whole entry): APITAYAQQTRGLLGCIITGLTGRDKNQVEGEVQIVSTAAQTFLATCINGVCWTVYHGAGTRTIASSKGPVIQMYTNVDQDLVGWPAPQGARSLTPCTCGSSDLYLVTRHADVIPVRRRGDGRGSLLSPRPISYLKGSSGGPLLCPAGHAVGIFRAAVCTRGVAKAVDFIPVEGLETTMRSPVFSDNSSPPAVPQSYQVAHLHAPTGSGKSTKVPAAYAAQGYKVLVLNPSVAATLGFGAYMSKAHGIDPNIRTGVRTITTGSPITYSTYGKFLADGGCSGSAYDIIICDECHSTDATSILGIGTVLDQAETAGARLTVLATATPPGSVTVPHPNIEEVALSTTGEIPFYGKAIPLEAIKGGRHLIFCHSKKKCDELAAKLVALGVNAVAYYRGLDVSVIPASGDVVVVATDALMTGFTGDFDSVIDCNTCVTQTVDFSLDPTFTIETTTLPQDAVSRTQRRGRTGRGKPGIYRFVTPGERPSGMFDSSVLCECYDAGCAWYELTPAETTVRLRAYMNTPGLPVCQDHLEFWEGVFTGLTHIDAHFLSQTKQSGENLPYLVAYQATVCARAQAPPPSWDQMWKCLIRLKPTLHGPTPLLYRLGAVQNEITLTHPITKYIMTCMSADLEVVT
Chain of Lysosomal acid glucosylceramidase (P04062 whole entry): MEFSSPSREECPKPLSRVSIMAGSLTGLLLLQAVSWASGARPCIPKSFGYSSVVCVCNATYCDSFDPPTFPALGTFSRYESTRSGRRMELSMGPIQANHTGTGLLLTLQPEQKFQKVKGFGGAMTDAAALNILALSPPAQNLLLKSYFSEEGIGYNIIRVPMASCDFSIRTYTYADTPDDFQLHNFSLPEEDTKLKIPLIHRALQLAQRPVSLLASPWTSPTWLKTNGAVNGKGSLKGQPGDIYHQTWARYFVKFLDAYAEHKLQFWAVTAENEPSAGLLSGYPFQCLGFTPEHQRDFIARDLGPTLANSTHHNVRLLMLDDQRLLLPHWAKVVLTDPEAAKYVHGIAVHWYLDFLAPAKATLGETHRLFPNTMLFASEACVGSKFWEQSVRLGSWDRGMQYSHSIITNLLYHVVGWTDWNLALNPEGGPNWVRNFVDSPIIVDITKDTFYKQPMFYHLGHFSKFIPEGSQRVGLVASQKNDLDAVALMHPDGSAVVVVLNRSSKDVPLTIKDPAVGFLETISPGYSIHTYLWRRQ
Chain of Polyadenylate-binding protein 1 (P11940 whole entry): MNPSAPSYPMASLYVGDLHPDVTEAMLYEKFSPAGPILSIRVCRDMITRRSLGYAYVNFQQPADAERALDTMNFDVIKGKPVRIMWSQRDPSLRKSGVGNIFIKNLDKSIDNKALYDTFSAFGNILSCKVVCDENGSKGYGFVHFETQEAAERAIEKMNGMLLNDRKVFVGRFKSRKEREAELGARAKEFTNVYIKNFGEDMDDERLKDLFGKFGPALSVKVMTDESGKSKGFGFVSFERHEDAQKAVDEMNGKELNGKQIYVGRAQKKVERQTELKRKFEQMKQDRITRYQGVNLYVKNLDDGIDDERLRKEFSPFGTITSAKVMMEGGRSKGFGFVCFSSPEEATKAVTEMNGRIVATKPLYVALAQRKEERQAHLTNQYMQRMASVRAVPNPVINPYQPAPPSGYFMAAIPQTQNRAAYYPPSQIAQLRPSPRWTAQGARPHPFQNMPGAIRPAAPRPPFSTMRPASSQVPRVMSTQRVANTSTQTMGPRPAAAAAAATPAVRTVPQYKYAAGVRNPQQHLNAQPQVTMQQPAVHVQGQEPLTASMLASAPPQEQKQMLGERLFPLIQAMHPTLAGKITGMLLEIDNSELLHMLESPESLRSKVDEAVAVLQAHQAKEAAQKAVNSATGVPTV

Compound: COCc1cc(O)n2nc(-c3ccsc3-n3c(C)ccc3C)cc2n1
- EC50 [1]: > 100 µM (not active)
- IC50 [2]: 13.3 µM (active)
- IC50 [3]: 51.3 µM (active)

Compound: Cc1cc(Br)ccc1SCC(=O)OCC(=O)NCc1ccco1
- IC50 [4]: 2.93 µM (active)
- IC50 [5]: 9.37 µM (active)

Compound: COC(=O)c1ccccc1NC(=O)CCCOc1cc(=O)n(C)c2ccccc12
- EC50 (Wee1-like protein kinase): > 49.7 µM (inactive)
- EC50 [6]: > 49.7 µM (inactive)

Compound: O=C(O)c1cc(-c2ccc(Cl)c(Cl)c2)n(-c2ccc(F)cc2)n1
- IC50 [7]: 8.13 µM (active)
- IC50 [8]: > 67 µM (not active)

Compound: Cc1cc2c3c(c1)C(C)(c1ccccc1)CC(C)(C)N3C(=O)C21C(C#N)=C(N)OC2=C1C(=O)CC(C)(C)C2 (stereo not given)
- EC50 [9]: 19.4 µM (active)
- EC50 [10]: 20.4 µM (active)
- EC50 [11]: 22 µM (inactive)
- Absolute IC50 (XBP1) (X-box-binding protein 1): 10 µM

Compound: Cc1ccc(C)c(N2CCN(C(=O)c3ccc4nc(-c5ccco5)c(-c5ccco5)nc4c3)CC2)c1
- IC50 (NS3): 14.2 µM (not active)
- AC50 (Cytochrome P450 1A2): 15.8 µM (inconclusive)
- AC50 (Cytochrome P450 3A4): 20 µM (inconclusive)

Compound: CCN(CC)CCOC(=O)c1ccc(NC(=O)COc2cc(=O)n(CC)c3ccccc23)cc1
- IC50 [12]: > 80 µM (inactive)

Compound: C=CCNc1ncnc2c1cnn2-c1ccc(OC)cc1
- EC50 [13]: 330 nM (active)
- EC50 (HT-1080): > 50 µM (not active)

Compound: O=C(CSc1nnc(Cc2ccccc2)n1Cc1ccco1)NC1CCCC1
- IC50 [14]: > 43.8 µM (not active)
- IC50 [15]: > 43.8 µM (not active)

Compound: CC1CCC(C(=O)NC(C(=O)NCCCN2CCOCC2)C(C)C)CC1 (stereo not given)
- EC50 [16]: > 10 µM (not active)

Compound: COC(=O)c1ccccc1C1c2ccc(O)c(O)c2OC2=C(O)C(=O)C=CC21 (stereo not given)
- IC50 [17]: > 50 µM (not active)

Compound: CC(C)[C@@H]1OC(=O)\C=C/C=C\C=C/C=C\C=C/C[C@@H](O)[C@H](C)[C@@H](O)C[C@H](O)C[C@H](O)C[C@H](O)C[C@H](O)C[C@H](O)C[C@H](O)/C=C\[C@@H]1C
- AC50 (Cytochrome P450 2D6): 316 nM (inconclusive)

Compound: Cc1ccnc(NS(=O)(=O)c2cc(C(F)(F)F)ccc2Cl)c1
- EC50 [18]: > 55.7 µM (not active)
- EC50 [19]: > 55.7 µM (not active)

Compound: COc1cccc(NC(=O)c2cc(C3CC3)on2)c1
- EC50 [20]: > 5.57 µM (inactive)

Compound: Nc1sc(-c2ccccc2)cc1-c1nnc(S)n1C1CCCCC1
- EC50 (HEK293): 22.5 µM (not active)
- EC50 [21]: 30.8 µM (not active)
- EC50 [22]: 24.4 µM (not active)
